Reference: patent US10597388B2, “Pyridazinone herbicides” (FMC CORPORATION, priority 2014, dated 2020)

Experiments:
Assay in all cases: Test D controlled growth environment herbicide test, pre- and postemergence
Assay type in all cases: in vivo
[1] = test system: chamomile (scentless chamomile, Matricaria inodora)
From the text: (§1) Seeds of plant species selected from bluegrass (annual bluegrass, Poa annua), blackgrass (Alopecurus myosuroides), Canada thistle (Cirsium arvense), canarygrass (Phalaris minor), chickweed (common chickweed, Stellaria media), geranium, cutleaf (cutleaf geranium, Geranium dissectum), galium (catchweed bedstraw, Galium aparine), bromegrass, downy (downy bromegrass, Bromus tectorum), field poppy (Papaver rhoeas), field violet (Viola arvensis), foxtail, green (green foxtail, Setaria viridis), deadnettle (henbit deadnettle, Lamium amplexicaule), ryegrass, Italian (Italian ryegrass, Lolium multiflorum), kochia (Kochia scoparia), lambsquarters (Chenopodium album), oilseed rape (Brassica napus), pigweed (Amaranthus retroflexus), chamomile (scentless chamomile, Matricaria inodora), Russian thistle (Salsola kali), speedwell (bird's-eye speedwell, Veronica persica), barley, spring (spring barley, Hordeum vulgare), wheat, spring (spring wheat, Triticum aestivum), buckwheat, wild (wild buckwheat, Polygonum convolvulus), mustard, wild (wild mustard, Sinapis arvensis), oat, wild (wild oat, Avena fatua), radish, wild (wild radish, Raphanus raphanistrum), windgrass (Apera spica-venti), barley, winter (winter barley, Hordeum vulgare), and wheat, winter (winter wheat, Triticum aestivum) were planted into a silt loam soil and treated preemergence with test chemicals formulated in a non-phytotoxic solvent mixture which included a surfactant.
(§2) At the same time, these species were planted in pots containing Redi-Earth® planting medium (Scotts Company, 14111 Scottslawn Road, Marysville, Ohio 43041) comprising spaghnum peat moss, vermiculite, wetting agent and starter nutrients and treated with postemergence applications of the test chemicals formulated in the same manner. Plants ranged in height from 2 to 18 cm (1- to 4-leaf stage). Treated plants and controls were maintained in a controlled growth environment for 14 to 21 d after which time all species were compared to controls and visually evaluated. Plant response ratings, summarized in Table D, are based on a scale of 0 to 100 where 0 is no effect and 100 is complete control. A dash (-) response means no test result.

[2] = test system: mustard, wild (wild mustard, Sinapis arvensis)
From the text: as §1, §2

[3] = test system: barley, winter (winter barley, Hordeum vulgare)
From the text: as §1, §2

[4] = test system: radish, wild (wild radish, Raphanus raphanistrum)
From the text: as §1, §2

[5] = test system: windgrass (Apera spica-venti)
From the text: as §1, §2

[6] = test system: blackgrass (Alopecurus myosuroides)
From the text: as §1, §2

[7] = test system: deadnettle (henbit deadnettle, Lamium amplexicaule)
From the text: as §1, §2

[8] = test system: lambsquarters (Chenopodium album)
From the text: as §1, §2

[9] = test system: foxtail, green (green foxtail, Setaria viridis)
From the text: as §1, §2

[10] = test system: field poppy (Papaver rhoeas)
From the text: as §1, §2

[11] = Postemergence, 31 g ai/ha, scale 0 to 100 (0 no effect, 100 complete control)
[12] = Postemergence, 125 g ai/ha, visual rating on scale 0 (no effect) to 100 (complete control), 14 to 21 d
[13] = Postemergence, 250 g ai/ha, scale 0 to 100 (0 no effect, 100 complete control)
[14] = postemergence, 62 g ai/ha, scale 0 to 100, 0 no effect, 100 complete control
[15] = Preemergence, 62 g ai/ha, scale 0 to 100 (0 no effect, 100 complete control)
[16] = Preemergence, 125 g ai/ha, scale 0 to 100 (0 no effect, 100 complete control)
[17] = Preemergence, 250 g ai/ha, scale 0 to 100, 0 no effect, 100 complete control

## Cc1nn(C)c(=O)c(-c2cccc3ccccc23)c1O [Compound 11, 5-hydroxy-2,6-dimethyl-4-(1-naphthalenyl)-3(2H)-pyridazinone]
[1]; [11]
  Chamomile plant response rating: 40
[1]; [12]
  Plant response rating, Chamomile: 75
[1]; [13]
  Plant response rating, Chamomile: 90
[1]; [14]
  Plant response rating, Chamomile: 65
[2]; [11]
  Mustard, Wild plant response rating: 65
[2]; [12]
  Plant response rating, Mustard, Wild: 75
[2]; [13]
  Plant response rating, Mustard, Wild: 95
[2]; Preemergence, 31 g ai/ha
  Plant response rating (scale of 0 to 100), Mustard, Wild: 0
[2]; [15]
  Plant response rating, Mustard, Wild: 20
[2]; [16]
  Plant response rating, Mustard, Wild: 75
[2]; [17]
  Plant response rating, Mustard, Wild: 100
[2]; [14]
  Plant response rating, Mustard, Wild: 70
[3]; [11]
  Plant response rating, Barley, Winter: 20
[3]; [12]
  Plant response rating, Barley, Winter: 25
[3]; [13]
  Plant response rating, Barley, Winter: 40
[3]; Preemergence, 31 g ai/ha
  Plant response rating (scale of 0 to 100), Barley, Winter: 5
[3]; [15]
  Plant response rating, Barley, Winter: 5
[3]; [16]
  Plant response rating, Barley, Winter: 5
[3]; [17]
  Barley, Winter plant response rating: 20
[3]; [14]
  Plant response rating, Barley, Winter: 20
[4]; [11]
  Radish, Wild plant response rating: 50
[4]; [12]
  Plant response rating, Radish, Wild: 60
[4]; [13]
  Plant response rating, Radish, Wild: 85
[4]; Preemergence, 31 g ai/ha
  Plant response rating (scale of 0 to 100), Radish, Wild: 10
[4]; [15]
  Plant response rating, Radish, Wild: 15
[4]; [16]
  Plant response rating, Radish, Wild: 20
[4]; [17]
  Plant response rating, Radish, Wild: 25
[4]; [14]
  Plant response rating, Radish, Wild: 30
[5]; [11]
  Windgrass plant response rating: 10
[5]; [12]
  Plant response rating, Windgrass: 15
[5]; [13]
  Plant response rating, Windgrass: 20
[5]; Preemergence, 31 g ai/ha
  Plant response rating (scale of 0 to 100), Windgrass: 25
[5]; [15]
  Plant response rating, Windgrass: 35
[5]; [16]
  Plant response rating, Windgrass: 55
[5]; [17]
  Plant response rating, Windgrass: 75
[5]; [14]
  Plant response rating, Windgrass: 10
[6]; [11]
  Blackgrass plant response rating: 25
[6]; [12]
  Plant response rating, Blackgrass: 70
[6]; [13]
  Plant response rating, Blackgrass: 70
[6]; Preemergence, 31 g ai/ha
  Plant response rating (scale of 0 to 100), Blackgrass: 5
[6]; [15]
  Plant response rating, Blackgrass: 30
[6]; [16]
  Plant response rating, Blackgrass: 55
[6]; [17]
  Blackgrass plant response rating: 75
[6]; [14]
  Plant response rating, Blackgrass: 40
[7]; [11]
  Deadnettle plant response rating: 75
[7]; [12]
  Plant response rating, Deadnettle: 100
[7]; [13]
  Plant response rating, Deadnettle: 100
[7]; Preemergence, 31 g ai/ha
  Plant response rating (scale of 0 to 100), Deadnettle: 10
[7]; [15]
  Plant response rating, Deadnettle: 15
[7]; [16]
  Plant response rating, Deadnettle: 50
[7]; [17]
  Plant response rating, Deadnettle: 100
[7]; [14]
  Plant response rating, Deadnettle: 100
[8]; [11]
  Lambsquarters plant response rating: 60
[8]; [12]
  Plant response rating, Lambsquarters: 80
[8]; [13]
  Plant response rating, Lambsquarters: 85
[8]; Preemergence, 31 g ai/ha
  Plant response rating (scale of 0 to 100), Lambsquarters: 25
[8]; [15]
  Plant response rating, Lambsquarters: 35
[8]; [16]
  Plant response rating, Lambsquarters: 100
[8]; [17]
  Plant response rating, Lambsquarters: 100
[8]; [14]
  Plant response rating, Lambsquarters: 80
[9]; [11]
  Foxtail, Green plant response rating: 5
[9]; [12]
  Plant response rating, Foxtail, Green: 65
[9]; [13]
  Plant response rating, Foxtail, Green: 70
[9]; Preemergence, 31 g ai/ha
  Plant response rating (scale of 0 to 100), Foxtail, Green: 10
[9]; [15]
  Plant response rating, Foxtail, Green: 10
[9]; [16]
  Plant response rating, Foxtail, Green: 15
[9]; [17]
  Plant response rating, Foxtail, Green: 65
[9]; [14]
  Plant response rating, Foxtail, Green: 25
[10]; [11]
  Field Poppy plant response rating: 35
[10]; [12]
  Plant response rating, Field Poppy: 80
[10]; [13]
  Plant response rating, Field Poppy: 100
[10]; Preemergence, 31 g ai/ha
  Plant response rating (scale of 0 to 100), Field Poppy: 75
[10]; [15]
  Plant response rating, Field Poppy: 75
[10]; [16]
  Plant response rating, Field Poppy: 100
[10]; [17]
  Plant response rating, Field Poppy: 100
[10]; [14]
  Plant response rating, Field Poppy: 85
